# Source: US20130123358A1, “Metabolic Benefits to Butyrate as a Chronic Diet Supplement” (priority 2009, published 2013)
# Assays:
# [1] = tested on: HDAC; assay: Histone Deacetylase Assay Kit, inhibition by butyrate isoforms; conditions: Histone Deacetylase Assay Kit (Upstate), FIG. 8
# Excerpt: Several isoforms of butyrate were purchased (Sigma Aldrich Chemicals, St. Louis, Mo.) and tested for inhibitory activity of HDAC, using a Histone Deacetylase Assay Kit (Upstate Biotechnology, Lake Placid, N.Y.).
# [2] = tested on: C57BL/6J mice on high fat diet; assay: TSA in HFD-fed mice (body weight, ITT, insulin signaling, muscle fiber); assay type: in vivo, mouse; conditions: TSA 0.6 ug/kg/day i.p.
# Experimental: Sodium butyrate was administrated through dietary supplementation. Sodium butyrate (#303410, Sigma) was incorporated into the HFD evenly through blending the diet and sodium butyrate together at 400 rpm in a food processor. Sodium butyrate (50 g) was used in 1 kg diet to reach a dose of 5% w/w. The sodium butyrate containing diet was pelleted and stored in a −20° C. freezer. Trichostatin A (TSA) (T-1052, A.G. Scientific Inc. San Diego, Calif.) was dissolved in DMSO, and diluted in 0.9% saline at 2:98 ratio. The TSA solution (200 ul) was administrated by intra-peritoneal (i.p.) injection to reach a dose of […]. The control mice were administrated with the same volume of vehicle. 50 ml of tributyrin (#113026, Sigma) was incorporated into one kilogram of Chow diet in powder to reach a dose of 5% w/w in mice.
# Trichostatin A (TSA) is a well-established HDAC inhibitor that is frequently used in the study of HDACs. The data presented above indicate that the metabolic activity of butyrate may be in part related to inhibition of HDACs. TSA activity was examined in the same model of murine obesity. TSA was administrated through daily i.p. injection during HFD feeding to C57BL/6J mice. The control mice were injected with an identical volume of PBS.
# The mice at 5 weeks in age were fed HFD to induce obesity, and TSA was administrated at the dose of 0.6 ug/kg/day. The effects of TSA treatment were tested after 12-13 weeks. […] FIG. 11C indicates the insulin signaling in the gastrocnemius muscle. The muscle was isolated after insulin (0.75 U/kg) injection for 30 minutes and used to prepare whole cell lysate for immunoblot. IRS-1 and Akt were examined for tyrosine (Y632) and serine (S473) phosphorylation.
# In addition, the vastus laterais muscle was isolated from the mice at 13 weeks on HFD, and used to make serial cryostat sections of muscle. The muscle slides made from vastus lateralis, gastrocnemius (gastr.) and soleus muscle were stained with antibody against the type I myosin heavy chain in the oxidative fiber. The photograph was taken at 20× magnification. The whole cell lysate was prepared from gastrocnemius muscle and analyzed in an immunoblot. PGC-1α, type I myosin heavy chain (Myosin) and myoglobin were blotted with specific antibodies, and the results shown in FIG. 11D. The results in FIGS. 11A-11D are the mean±SE (n=8 in each group). *P<0.05 (vs. control).
# [3] = tested on: HDAC; assay: Histone deacetylase assay on muscle nuclear extracts of treated mice; assay type: in vivo, mouse; conditions: TSA-treated mice on HFD, positive control
# Experimental: Histone deacetylase assay were conducted according to the instruction from the manufacturer (#17-320, Upstate). Briefly, 10 ug of muscle nuclear extract (as an enzyme) was incubated with [3H]-acetyl CoA (#TRK688, Amersham) radio labeled histone H4 peptide (25,000 CPM, as a substrate) at 37° C. for 12 hours by shaking Released [3H]-acetate was measured using a scintillation counter. The nuclear extract was prepared according to a protocol described elsewhere (17). The muscle tissues were collected and snap-frozen in liquid nitrogen within 2 min of cervical dislocation of mice. Tissue samples were stored at −80° C. until further processing. The muscle sample of 200˜300 mg was cut into small pieces on dry ice and homogenized in 1 ml of lysate buffer. After centrifugation at 10,000 rpm for 1 minute at 4° C., the nucleus was pelleted and collected. After being washed, the nucleus pellet was treated with extraction buffer. The supernatant was collected for nuclear protein after centrifugation at 14,000 rpm for 5 minutes at 4° C.
# Without wishing to be bound by this theory, one activity of butyrate could be related to inhibition of HDAC. Sodium butyrate inhibits the class I and class II histone deacetylases (HDACs). To test this possibility, HDAC activity was examined in the skeletal muscle of mice at 16 weeks on HFD (FIG. 7G). The assay was conducted with the nuclear extracts of muscle samples. […]
# [4] = tested on: C57BL/6J mice on chow diet; assay: Amyl butyrate in mice on chow diet for 4 months; assay type: in vivo, mouse; conditions: amyl butyrate 5 g/kg BW/day in chow diet
# Experimental: Amyl butyrate was administrated at 5 g/kg BW/day in C57BL/6J mice for 4 months. The amyl butyrate was added to the chow diet. […] FIGS. 14B and 14C show the body fat and muscle content measured by NMR as described above. […] In FIGS. 14A-14E, values are the mean±SE (n=7). *P<0.05, **P<0.001 compared to the control by Student's t test.
# [5] = tested on: ob/ob mice; assay: Tributyrin in ob/ob genetically obese mice; assay type: in vivo, mouse; conditions: tributyrin 5 g/kg body weight/day in chow diet
# Experimental: Male C57BL/6J (4 weeks in age) and ob/ob mice (4 weeks in age) were purchased from the Jackson Laboratory (Bar Harbor, Me.). After one week quarantine, the C57BL/6J mice were fed on the high fat diet (HFD, D12331, Research Diets, New Brunswick, N.J.), which contains 58% calories in fat. The ob/ob mice were fed on Chow diet (5001, Lab Diet) that contains 13.4% calories in fat. All of the mice were housed in the animal facility with a 12:12-h light-dark cycle and constant temperature (22-24° C.). The mice were free to access water and diet. All procedures were performed in accordance with National Institute of Health guidelines for the care and use of animals and approved by the Institute Animal Care and Use Committee at the Pennington Biomedical Research Center.
# Sodium butyrate was administrated through dietary supplementation. Sodium butyrate (#303410, Sigma) was incorporated into the HFD evenly through blending the diet and sodium butyrate together at 400 rpm in a food processor. Sodium butyrate (50 g) was used in 1 kg diet to reach a dose of 5% w/w. The sodium butyrate containing diet was pelleted and stored in a −20° C. freezer. […]
# To test effect of different forms of butyric acid, tributyrin was used in the ob/ob genetically obese mice model. […] After 2 weeks, body weight was measured and an insulin tolerance test was given. […]
smiles,measurement,setting,value
CC(C)C(O)C(=O)O (stereo not shown) [2-hydroxy-3-methylbutanoic acid],inhibitory activity of HDAC,[1],inhibited HDAC
"CC(/C=C/C(=O)NO)=C\[C@@H](C)C(=O)c1ccc(N(C)C)cc1 [TSA, Trichostatin A]","body weight, less than control",[2]; 12 weeks on HFD,16%
same,insulin tolerance (ITT),"[2]; 12 weeks on HFD, 4 hour fast",significantly improved
same,expression of type I myosin heavy chain in gastrocnemius and soleus (histology),[2]; 13 weeks on HFD,increased
same,oxidative fiber ratio in skeletal muscle,[2]; 13 weeks on HFD,increased
same,"insulin-induced signaling (IRS-1 Y632, Akt S473 phosphorylation) in gastrocnemius muscle",[2]; 30 minutes after insulin 0.75 U/kg,significantly improved
same,PGC-1α protein in gastrocnemius muscle,[2]; immunoblot,all increased
same,myoglobin protein in gastrocnemius muscle,[2]; immunoblot,all increased
same,type I myosin heavy chain protein in gastrocnemius muscle,[2]; immunoblot,all increased
same,HDAC activity in skeletal muscle,[3],decreased
CCCC(=O)OC(C)c1ccccc1 (stereo not shown) [a-methylbenzyl butyrate],inhibitory activity of HDAC,[1],inhibited HDAC
CCCCCOC(=O)CCC [amyl butyrate],inhibitory activity of HDAC,[1],inhibited HDAC
same,body weight gain,[4],prevented body weight gain
same,insulin resistance (fasting glucose and ITT),[4],protected the mice from insulin resistance
same,body fat gain,[4]; NMR,prevented fat gain
same,lean body mass,[4]; NMR,without affecting lean body mass
CCCC(=O)OCc1ccccc1 [benzyl butyrate],inhibitory activity of HDAC,[1],inhibited HDAC
CCCCOC(=O)CCC [butyl butyrate],inhibitory activity of HDAC,[1],inhibited HDAC
CCCCCCCOC(=O)CCC [heptyl butyrate],inhibitory activity of HDAC,[1],inhibited HDAC
CCCCCCOC(=O)CCC [hexyl butyrate],inhibitory activity of HDAC,[1],inhibited HDAC
CCCC(=O)OCC(C)C [isobutyl butyrate],inhibitory activity of HDAC,[1],inhibited HDAC
CCCC(=O)OC [methyl butyrate],inhibitory activity of HDAC,[1],inhibited HDAC
CCCC(=O)OCCc1ccccc1 [pennetyl butyrate],inhibitory activity of HDAC,[1],inhibited HDAC
CCCC(=O)OCC(COC(=O)CCC)OC(=O)CCC [tributyrin],weight gain,"[5]; 2 weeks, vs control",significantly reduced
same,insulin sensitivity (ITT),[5]; 4 hours fasting,preserved
